Test results as given in patent US9707272B2, “Method for the treatment of acne by administering IL-1β antibody” (UNIVERSITAT ZURICH, priority 2011, dated 2017).

What was measured:
[1] = test system: IL-1β secretion from human monocytes; test: IL-1β secretion (ELISA) and maturation (western blot) from human monocytes exposed to P. acnes or inflammasome activators; format: cell-based; conditions: upLPS-primed human monocytes, P. acnes MOI=100, 6 h; Glibenclamide or KCl 65 mM added one hour prior, FIG. 3f
Description: For Western blotting cell culture supernatants were precipitated by addition of 0.25 volumes of trichloroacetic acid (100% w/v), 10 min incubation on ice and centrifugation for 5 min at 14,000 g. Protein pellet was washed twice with ice-cold acetone, centrifuged as described above and dried at 70° C. Cells were lysed with buffer (10 mM Tris pH 7.5, 1% NP-40, 150 mM NaCl, 5 mM EDTA,) containing a protease inhibitor cocktail. Proteins were separated on a NuPAGE gel in accordance with the manufacturer's protocol and transferred to a Hybond-C-Extra membrane by electroblotting. […] Appropriate HRP-conjugated secondary antibodies were used and proteins were detected using ECL reagent. […]
Human monocytes were primed with upLPS and infected with P. acnes (MOI=100) or stimulated with MSU crystals ([…]) in the presence of vehicle (DMSO) or pan-caspase inhibitor (Z-VAD-fmk, […]) for 24 h (FIG. 2a). IL-1β secretion was determined by ELISA and mature IL-1β release (IL-1β p17) by western blot. […]
THP1 cells were treated with vehicle (DMSO) or cytochalasin D (Cyt. D, […]) for one hour and then incubated with CFSE-labeled P. acnes (MOI=100) for 4 h or left untreated (FIG. 3a). Bacteria uptake was analyzed by FACS. […] IL-1β (FIG. 3f) and TNFα (FIG. 3g) release were determined after 6 h by ELISA. […]

[2] = test system: TLR2−/− mice; test: Intradermal P. acnes ear inflammation model in TLR2-deficient mice; format: in vivo, mouse; conditions: treatment with IL-1Ra or anti-IL-1β antibody; for development of cutaneous inflammation: histology, FIG. 4i; for development of ear swelling: FIG. 4g
Description: (§1) C57BL/6 mice received three intraperitoneal (i.p.) injections of IL-1 receptor antagonist (IL-1Ra, Anakinra, 150 mg/kg) or PBS at 8 h intervals. One hour after first i.p. injection of IL-1Ra mice received intradermal injections of P. acnes or PBS. TNFα inhibitor (Etanercept) and anti-IL-1β antibody treated mice (Canakinumab, […]) C57BL/6 mice received i.p. injection 24 h before an intradermal injection of P. acnes or PBS. To make bone marrow chimeras indicated mice were lethally irradiated (10 Gy) and subsequently transplanted with indicated bone marrow. After bone marrow reconstitution (8 weeks later) mice were interdermally injected with P. acnes or PBS.
(§2) The ear thickness was measured using a micro caliper before and 24 h after bacterial injection. The percentage of ear thickness was calculated by comparing the ear thickness before and 24 hours after injection.
(§3) WT mice were injected intradermally with P. acnes (20×10^6 CFU/[…] in PBS, left ear) or with an equal amount of PBS (right ear) (FIG. 4a). Mice were treated with vehicle (n=11) or three intraperitoneal injections of IL-1Ra (Anakinra, 150 mg/kg, n=13) at the 8 h intervals or a single i.p. injection of anti-IL1β antibody ([…]) one hour prior to P. acnes or PBS challenge. The ear swelling as measured 24 hrs later is presented. ASC^−/− mice were challenged the same way with P. acnes. The resulting ear swelling (FIG. 4b) and pro- and mature-IL1β in ear extracts (FIG. 4c) are presented. […] WT mice reconstituted with WT (n=8-10), ASC^−/− (n=12) or NLRP3^−/− (n=8) bone marrow were challenged with P. acnes or PBS as described above. The resulting swelling (FIG. 4e) and histology of the infected ear (FIG. 4f) are presented. TLR2^−/− (n=10) were intradermally injected with P. acnes or PBS one hour after treatment with IL-1Ra (n=10) or anti-IL-1β antibody (n=9) as described above. The resulting ear swelling (FIG. 4g) and histology (FIG. 4i) are presented.

[3] = test system: C57BL/6 WT mice; test: Intradermal P. acnes ear inflammation model in WT mice; format: in vivo, mouse; conditions: for ear swelling: intradermal P. acnes 20×10^6 CFU, 24 h, i.p. IL-1Ra 150 mg/kg three times at 8 h intervals or single i.p. anti-IL1β antibody, FIG. 4a; for subcutaneous neutrophil infiltration: intradermal P. acnes, histology (HE), i.p. IL-1Ra or anti-IL1β antibody, FIG. 4d
Description: as §1, §2, §3

Molecule	IL-1β release [1]	development of cutaneous inflammation [2]	development of ear swelling [2]	ear swelling [3]	subcutaneous neutrophil infiltration [3]	subcutaneous neutrophil infiltration ([3]; listed as IL-1 receptor antagonist)	subcutaneous neutrophil infiltration ([3]; listed as monoclonal anti-IL1β antibody)
COc1ccc(Cl)cc1C(=O)NCCc1ccc(S(=O)(=O)NC(=O)NC2CCCCC2)cc1 [glibenclamide, 5-Chloro-N-[2-[4-(cyclohexylcarbamoylsulfamoyl)phenyl]ethyl]-2-methoxy-benzamide]	significant reduction	–	–	–	–	–	–
[Cl-].[K+] [KCl]	significant reduction	–	–	–	–	–	–
Anakinra [IL-1Ra]	–	blocked	blocked	significant reduction	significant reduction	selective blockade	–
Canakinumab (antibody, V domains shown, antibody fragment, Id; No. 1 and 2) VH: QVQLVESGGGVVQPGRSLRLSCAASGFTFSVYGMNWVRQAPGKGLEWVAIIWYDGDNQYYADSVKGRFTISRDNSKNTLYLQMNGLRAEDTAVYYCARDLRTGPFDYWGQGTLVTVSS VL: EIVLTQSPDFQSVTPKEKVTITCRASQSIGSSLHWYQQKPDQSPKLLIKYASQSFSGVPSRFSGSGSGTDFTLTINSLEAEDAAAYYCHQSSSLPFTFGPGTKVDIK	–	blocked	blocked	significant reduction	significant reduction	–	selective blockade
